# The source made the active and inactive calls. How the calls were made is not given here.
# Test system: CCRIS mutagenicity, Ames/micronucleus/aberration tests
# Test: CCRIS mutagenicity studies
# [1] = Test System: AMES SALMONELLA TYPHIMURIUM, Strain/Indicator: TA98, Metabolic Activation: NONE, Method: STANDARD PLATE
# [2] = Test System: AMES SALMONELLA TYPHIMURIUM, Strain/Indicator: TA98, Metabolic Activation: RAT, LIVER, S-9, AROCLOR 1254, Method: STANDARD PLATE
# [3] = Test System: AMES SALMONELLA TYPHIMURIUM, Strain/Indicator: TA100, Metabolic Activation: NONE, Method: PREINCUBATION
# [4] = Test System: AMES SALMONELLA TYPHIMURIUM, Strain/Indicator: TA98, Metabolic Activation: NONE, Method: PREINCUBATION
smiles,measurement,setting,value
C=Cc1c(C)c2[n-]c1=CC1=NC(=CC3=C(C)C(=C([O-])[O-])C(=N3)C(CC(=O)[O-])=C3N=C(C=2)C(C)C3CCC(=O)[O-])C(CC)=C1C.[Cu+2].[Na+].[Na+].[Na+] (stereo not given),mutagenic call,"Test System: AMES SALMONELLA TYPHIMURIUM, Strain/Indicator: TA97, Metabolic Activation: NONE, Method: PREINCUBATION",inactive; negative
same,mutagenic call,"Test System: AMES SALMONELLA TYPHIMURIUM, Strain/Indicator: TA97, Metabolic Activation: S-9, Method: PREINCUBATION",inactive; negative
same,mutagenic call,"Test System: AMES SALMONELLA TYPHIMURIUM, Strain/Indicator: TA102, Metabolic Activation: NONE, Method: PREINCUBATION",inactive; negative
same,mutagenic call,"Test System: AMES SALMONELLA TYPHIMURIUM, Strain/Indicator: TA102, Metabolic Activation: S-9, Method: PREINCUBATION",inactive; negative
same,mutagenic call,"Test System: CHINESE HAMSTER OVARY, Strain/Indicator: CHO-K1 (HGPRT)/6-THIOGUANINE",inactive; negative
COc1ccc2c(c1)-c1nccc3cc(OC)c(O)c(c13)C2=O,mutagenic call,"Test System: AMES SALMONELLA TYPHIMURIUM, Strain/Indicator: TA98, Metabolic Activation: RAT, LIVER, S-9, PHENOBARBITAL AND BETA-NAPHTHOFLAVONE, Method: PREINCUBATION",active; positive
C=CC(=O)OCCCCCC,mutagenic call,[1],inactive; negative
same,mutagenic call,[2],inactive; negative
same,mutagenic call,"Test System: AMES SALMONELLA TYPHIMURIUM, Strain/Indicator: TA98, Metabolic Activation: RAT, LIVER, S-9, SODIUM PHENOBARBITAL, Method: STANDARD PLATE",inactive; negative
same,mutagenic call,[3],inactive; negative
same,mutagenic call,"Test System: AMES SALMONELLA TYPHIMURIUM, Strain/Indicator: TA100, Metabolic Activation: NONE, Method: STANDARD PLATE",inactive; negative
same,mutagenic call,"Test System: AMES SALMONELLA TYPHIMURIUM, Strain/Indicator: TA100, Metabolic Activation: RAT, LIVER, S-9, AROCLOR 1254, Method: PREINCUBATION",inactive; negative
same,mutagenic call,"Test System: AMES SALMONELLA TYPHIMURIUM, Strain/Indicator: TA100, Metabolic Activation: RAT, LIVER, S-9, AROCLOR 1254, Method: STANDARD PLATE",inactive; negative
same,mutagenic call,"Test System: AMES SALMONELLA TYPHIMURIUM, Strain/Indicator: TA100, Metabolic Activation: RAT, LIVER, S-9, SODIUM PHENOBARBITAL, Method: STANDARD PLATE",inactive; negative
same,mutagenic call,"Test System: AMES SALMONELLA TYPHIMURIUM, Strain/Indicator: TA1535, Metabolic Activation: NONE, Method: STANDARD PLATE",inactive; negative
same,mutagenic call,"Test System: AMES SALMONELLA TYPHIMURIUM, Strain/Indicator: TA1535, Metabolic Activation: RAT, LIVER, S-9, AROCLOR 1254, Method: STANDARD PLATE",inactive; negative
same,mutagenic call,"Test System: AMES SALMONELLA TYPHIMURIUM, Strain/Indicator: TA1535, Metabolic Activation: RAT, LIVER, S-9, SODIUM PHENOBARBITAL, Method: STANDARD PLATE",inactive; negative
same,mutagenic call,"Test System: AMES SALMONELLA TYPHIMURIUM, Strain/Indicator: TA1537, Metabolic Activation: NONE, Method: STANDARD PLATE",inactive; negative
same,mutagenic call,"Test System: AMES SALMONELLA TYPHIMURIUM, Strain/Indicator: TA1537, Metabolic Activation: RAT, LIVER, S-9, AROCLOR 1254, Method: STANDARD PLATE",inactive; negative
same,mutagenic call,"Test System: AMES SALMONELLA TYPHIMURIUM, Strain/Indicator: TA1537, Metabolic Activation: RAT, LIVER, S-9, SODIUM PHENOBARBITAL, Method: STANDARD PLATE",inactive; negative
same,mutagenic call,"Test System: AMES SALMONELLA TYPHIMURIUM, Strain/Indicator: TA1538, Metabolic Activation: NONE, Method: STANDARD PLATE",inactive; negative
same,mutagenic call,"Test System: AMES SALMONELLA TYPHIMURIUM, Strain/Indicator: TA1538, Metabolic Activation: RAT, LIVER, S-9, AROCLOR 1254, Method: STANDARD PLATE",inactive; negative
same,mutagenic call,"Test System: AMES SALMONELLA TYPHIMURIUM, Strain/Indicator: TA1538, Metabolic Activation: RAT, LIVER, S-9, SODIUM PHENOBARBITAL, Method: STANDARD PLATE",inactive; negative
O=[N+]([O-])c1ccc2cc3ccccc3cc2c1,mutagenic call,[4],active; positive
same,mutagenic call,[1],active; positive
same,mutagenic call,"Test System: AMES SALMONELLA TYPHIMURIUM, Strain/Indicator: TA98, Metabolic Activation: RAT, LIVER, S-9, AROCLOR 1254 (10%), Method: PREINCUBATION",active; positive
same,mutagenic call,[2],active; positive
same,mutagenic call,[3],active; positive
same,mutagenic call,"Test System: AMES SALMONELLA TYPHIMURIUM, Strain/Indicator: TA100, Metabolic Activation: RAT, LIVER, S-9, AROCLOR 1254 (10%), Method: PREINCUBATION",active; positive
Cc1ccc2ccc3cc4ccccc4c4ccc1c2c34,mutagenic call,"Test System: AMES SALMONELLA TYPHIMURIUM, Strain/Indicator: TA100, Metabolic Activation: RAT, INTACT HEPATOCYTES, AROCLOR 1254, Method: PREINCUBATION",active; positive
same,mutagenic call,"Test System: AMES SALMONELLA TYPHIMURIUM, Strain/Indicator: TA100, Metabolic Activation: RAT, NADPH-FORTIFIED HOMOGENIZED HEPATOCYTES, AROCLOR 1254, Method: PREINCUBATION",active; positive
C=CC(O)c1ccc2c(c1)OCO2 (stereo not given),mutagenic call,"Test System: UDS HUMAN FIBROBLASTS, Strain/Indicator: THY INCORP (NON-S-PHASE), Metabolic Activation: NONE, Method: AUTORADIOGRAPHY",active; positive
O=C(Cl)Cc1ccccc1,mutagenic call,[4],active; positive
same,mutagenic call,"Test System: AMES SALMONELLA TYPHIMURIUM, Strain/Indicator: TA98, Metabolic Activation: RAT LIVER S-9, PCB, Method: PREINCUBATION",active; positive
same,mutagenic call,[3],active; positive
same,mutagenic call,"Test System: AMES SALMONELLA TYPHIMURIUM, Strain/Indicator: TA100, Metabolic Activation: RAT LIVER S-9, PCB, Method: PREINCUBATION",active; positive
same,mutagenic call,"Test System: AMES SALMONELLA TYPHIMURIUM, Strain/Indicator: TA104, Metabolic Activation: NONE, Method: PREINCUBATION",active; positive
same,mutagenic call,"Test System: AMES SALMONELLA TYPHIMURIUM, Strain/Indicator: TA104, Metabolic Activation: RAT LIVER S-9, PCB, Method: PREINCUBATION",active; positive
same,mutagenic call,"Test System: E.COLI, Strain/Indicator: WP2 UVRA, Metabolic Activation: NONE, Method: PREINCUBATION",active; positive
same,mutagenic call,"Test System: E.COLI, Strain/Indicator: WP2 UVRA, Metabolic Activation: RAT LIVER S-9, PCB, Method: PREINCUBATION",active; positive

# — PubChem BioAssay AID1259407 (Chemical Carcinogenesis Research Information System (CCRIS), 2018)
